Reference: patent publication US8716242B2, “β-hairpin peptidomimetics” (priority 2009, dated 2014)
Where two headings read alike, the source gives them in different places. Numbered stars: 1 amine (or outer) side, 2 acyl side, 3 side chain; on linkers, the order of the positions; unused ones are H or OH. Bridge positions count the residues as written; N and C are the ends. Square brackets hold non-standard residues; d marks the D form. Peptide text beside a SMILES is read from it. * marks the point of attachment. Hexadecanoyl(16-OH) = O=C(CCCCCCCCCCCCCCCO)*; X1 = O=C([C@H]1C[C@H](N[*:3])CN1[*:1])[*:2]; Gly(decyl) = CCCCCCCCCC[C@H](N)C(=O)O; Myristoyl = CCCCCCCCCCCCCC(=O)*; Lauroyl = CCCCCCCCCCCC(=O)*; Decanoyl = CCCCCCCCCC(=O)*; Dab = NCC[C@H](N)C(=O)O; X3 = CCCCCCCCCC*

What was measured:
[1] = Cytotoxicity, MTT reduction assay, COS-7 cells; format: cell-based; details: 12.5-50 μM; for GI50: 48 h; for GI50 at 48 h: African green monkey, COS-7 cells (CRL-1651)
Protocol: (§1) Mouse pre-B cells were cultured in RPMI1640 plus 5% FBS, antibiotic/antimycotic, non essential amino acid, 50 μM β-mercaptoethanol and 1 mM natrium pyruvate. HELA cells were maintained in RPMI1640 plus 10% FBS, pen/strept and 2 mM L-glutamine. Cos-7 cells were grown in DMEM medium with […] glucose supplemented with 10% FCS, pen/strept and 2 mM L-glutamine. All cell lines were grown at 37° C. at 5% CO2. Cell media, media supplements, PBS-buffer, HEPES, antibiotic/antimycotic, pen/strept, non essential amino acid, L-glutamine, β-mercaptoethanol and sera were purchased from Gibco (Pailsey, UK). All fine chemicals were supplied by Merck (Darmstadt, Germany).
(§2) The cytotoxicity of the peptides to HELA cells (Acc57) and COS-7 cells (CRL-1651) was determined using the MTT reduction assay (T. Mossman, J. Immunol. Meth. 1983, 65, 55-63; M. V. Berridge, A. S. Tan, Arch. Biochem. Biophys. 1993, 303, 474-482). Briefly, the method was as follows: 4000 HELA cells/well and 3400 COS-7 cells/well were seeded and grown in 96-well microtiter plates for 24 h at 37° C. at 5% CO2. Thereafter, time zero (Tz) was determined by MTT reduction (see below). The supernatant of the remaining wells was discarded, and fresh medium and compounds in serial dilutions (12.5, 25 and 50 μM, triplicates) were pipetted into the wells. After incubation of the cells for 48 h at 37° C. at 5% CO2 the supernatant was discarded again and 100 μL MTT reagent (0.5 mg/mL in RPMI1640 and DMEM, respectively)/well was added. Following incubation at 37° C. for 2-4 h the media were aspirated and the cells were spiked (100 μL isopropanol/well). The absorbance of the solubilized formazan was measured at 595 nm (OD595peptide). For each concentration averages were calculated from triplicates. The percentage of growth was calculated as follows: (OD595peptide-OD595Tz-OD595Empty well)/(OD595Tz-OD595Empty well)×100%. The GI50 (Growth Inhibition) concentrations were calculated for each peptide by using a trend line function for the concentrations (50, 25, 12.5 and 0 μM), the corresponding percentages and the value 50, (=TREND (C50: C0, %50:%0,50).

[2] = Cytotoxicity, MTT reduction assay, HELA cells; format: cell-based; details: 12.5-50 μM; for GI50: 48 h; for GI50 at 48 h: human, HELA cells (Acc57)
Protocol: as §1, §2

[3] = Plasma stability in mouse plasma; format: in vitro ADME; details: mouse plasma, 37° C.; for remaining at 24 h, 10 μM: 1440 min, read-out: mouse pl. cpd left at 1440 min; for mouse pl. T1/2: up to 1440 min
Protocol: (§3) Percent hemolysis was calculated as follows: (OD540peptide/OD540H2O)×100%. 2.6. Plasma Stability
(§4) The stability of the peptides in human and mouse plasma was determined by applying the following method: 346.5 μL/deep well of freshly thawed human plasma (Basler Blutspendedienst) and mouse plasma (Harlan Sera-Lab, UK), respectively, were spiked with 3.5 μL/well of compound dissolved in DMSO/H2O ([…] [v/v], 1 mM, triplicate) and incubated at 37° C. At t=0, 15, 30, 60, 120, 240 and 1440 min aliquots of 50 μL were transferred to filtration plate wells containing 150 μL/well of 2% formic acid in acetonitrile. Following shaking for 2 min the occurred suspensions were filtrated by vacuum and 50 μL of each filtrate was mixed with 100 μL of 1% formic acid in H2O. After transfer to a propylene microtiter plate, the filtrates were analyzed by LC/MS as follows: Column: Waters, XBridge C18, mobile phases: (A) water+0.1% formic acid and (B) acetonitrile/water, 95/5 (v/v)+0.1% formic acid, gradient: 5%-100% (B) in 2 minutes, electrospray ionization, MRM detection (triple quadrupole). The peak areas were determined and triplicate values are averaged. The stability is expressed in percent of the initial value at t=0. (tx/t0×100). By using the TREND function of EXCEL (Microsoft Office 2003) T1/2 were determined.

[4] = Plasma stability in human plasma; format: in vitro ADME; details: human plasma, 37° C.; for remaining at 24 h, 10 μM: 1440 min, read-out: human pl. cpd left at 1440 min; for half-life / human pl. T1/2: up to 1440 min; for half-life: read-out: human pl. T1/2
Protocol: as §3, §4

human CXCR4 = target: T1, human CXCR4 (Homo sapiens, UniProt P61073); assay: Ca2+-assay: CXCR4-antagonizing activity (SDF-1 induced calcium mobilization); format: cell-based
T1 construct: expressed in transfected cells; host or cells: mouse pre-B cell line 300-19
From the text: 2.3. Ca^2+-Assay: CXCR4-Antagonizing Activity of the Peptides
Increases in intracellular calcium were monitored using a Flexstation 384 (Molecular Devices, Sunnyvale, Calif.) to assay the peptides for CXCR4 antagonism in a mouse pre-B cell line 300-19 stably transfected with human CXCR4 (E. Oberlin, A. Amara, F. Bachelerie, C. Bessia, J.-L. Virelizier, F. Arenzana-Seisdedos, O, Schwartz, J.-M. Heard, I. Clark-Lewis, D. F. Legler, M. Loetscher, M. Baggiolini, B. Moser, Nature 1996, 382, 833-835; M. Loetscher, T. Geiser, T. O'Reilly, R. Zwalen, M. Baggiolini, B. Moser, J. Biol. Chem. 1994, 269, 232-237; M. D'Apuuo, A. Rolink, M. Loetscher, J. A. Hoxie, I. Clark-Lewis, F. Melchors, M. Baggiolini, B. Moser, Eur. J. Immunol. 1997, 27, 1788-1793). The cells were batch loaded with the Calcium 4 Assay kit (Molecular Devices) in assay buffer (Hanks Balanced salt solution [HBSS], 20 mM HEPES, pH 7.4, 0.1% BSA) for 1 h at room temperature and labeled cells were dispensed into black well assays plates (Costar No. 3603). Calcium mobilization induced by stromal-derived factor-1 (SDF-1) was measured in the Flexstation 384 (excitation: 485 nm; emission: 525 nm) for 90 seconds. Antagonist activity of peptides was determined by spiking the cells with compounds prior to SDF-1 addition. Dose response curves (compound concentration versus % maximum response for SDF-1) were determined for each antagonist and IC50 values were calculated by fitting the data to a four parameter logistic equation using SoftmaxPro 4.8 (Molecular Devices).

[5] = system: human red blood cells (hRBC); assay: Hemolysis of human red blood cells; format: cell-based; details: 20% hRBC, 1 h, 37° C.
Protocol: The peptides were tested for their hemolytic activity against human red blood cells (hRBC). Fresh hRBC were washed three times with phosphate buffered saline (PBS) and centrifuged for 10 min at 2000×g. Compounds (100 μM) were incubated with 20% hRBC (v/v) for 1 h at 37° C. and shaking at 300 rpm. The final erythrocyte concentration was approximately 0.9×10^9 cells/mL. A value of 0% and 100% cell lyses, respectively, was determined by incubation of hRBC in the presence of PBS containing 0.001% acetic acid and 2.5% Triton X-100 in H2O, respectively. The samples were centrifuged, the supernatants were 8-fold diluted in PBS buffer and the optical densities (OD) were measured at 540 nm. The 100% lyses value (OD540H2O) gave an OD540 of approximately 0.5-1.0.
as §3

[6] = mouse pre-B cell line 300-19 transfected with human CXCR4, SDF-1 induced Ca2+ mobilization, read-out: IC50% [nM] ± SD, CXCR4 receptor

T1 sequence (P61073 whole entry): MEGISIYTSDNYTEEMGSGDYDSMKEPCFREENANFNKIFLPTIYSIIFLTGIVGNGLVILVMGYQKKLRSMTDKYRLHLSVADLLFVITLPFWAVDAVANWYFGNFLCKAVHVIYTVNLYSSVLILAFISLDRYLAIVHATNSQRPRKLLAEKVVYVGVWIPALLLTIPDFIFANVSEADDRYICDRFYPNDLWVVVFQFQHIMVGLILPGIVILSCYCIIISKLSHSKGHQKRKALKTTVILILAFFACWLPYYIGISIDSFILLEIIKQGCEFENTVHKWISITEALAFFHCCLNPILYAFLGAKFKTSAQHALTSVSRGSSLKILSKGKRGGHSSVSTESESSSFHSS

SMILES	GI50 ([1]; COS-7 cells) [µM]	GI50 ([2]; HELA cells) [µM]	remaining at 24 h, 10 μM [3] [%]	mouse pl. T1/2 [3] [h]	remaining at 24 h, 10 μM [4] [%]	half-life [4] [h]	human pl. T1/2 [4] [h]	IC50 (human CXCR4; [6]) [nM]	GI50 at 48 h [1] [µM]	Hemolysis at 100 μM [5] [%]	GI50 at 48 h [2] [µM]	GI50 [1] [µM]	GI50 [2] [µM]	IC50 (human CXCR4) [nM]
CCCCCCCCCCCCCC(=O)N[C@H]1C[C@@H]2C(=O)N[C@@H](CCN)C(=O)N[C@@H](CCCNC(=N)N)C(=O)N[C@@H](Cc3ccc(O)cc3)C(=O)N[C@H]3CSSC[C@H](NC(=O)[C@H]([C@@H](C)O)NC(=O)[C@H](Cc4c[nH]cn4)NC(=O)[C@H](Cc4ccc(O)cc4)NC(=O)[C@@H]4CCCN4C(=O)[C@H]4CCCN4C(=O)[C@H](CCC(N)=O)NC(=O)[C@H](CCC(N)=O)NC(=O)[C@H](Cc4ccc(O)cc4)NC3=O)C(=O)N[C@@H](CCCNC(=N)N)C(=O)NCC(=O)N2C1 [Ex. 4] (cyclo(YHTCRG[X1](Myristoyl)[Dab]RYCYQQ[dP]P); disulfide 4-11)	> 50	> 50	62	24	66	5.25	–	–	–	–	–	–	–	–
CCCCCCCCCC[C@@H]1NC(=O)[C@H](Cc2ccc(O)cc2)NC(=O)[C@@H]2CSSC[C@H](NC(=O)[C@H](Cc3ccc(O)cc3)NC(=O)[C@H](Cc3c[nH]cn3)NC(=O)[C@H](Cc3ccc(O)cc3)NC(=O)[C@@H]3CCCN3C(=O)[C@H]3CCCN3C(=O)[C@H](CCCCN)NC1=O)C(=O)N[C@@H](CCCNC(=N)N)C(=O)N[C@@H](C)C(=O)N1CCC[C@@H]1C(=O)N[C@@H](CCN)C(=O)N[C@@H](CCCNC(=N)N)C(=O)N[C@@H](Cc1ccc(O)cc1)C(=O)N2 [Ex. 8] (cyclo(YHYCRA[dP][Dab]RYCY[Gly(decyl)]K[dP]P); disulfide 4-11)	> 44	> 26	82	24	79	–	24	–	–	–	–	–	–	–
CCCCCCCCCCCC(=O)NCC[C@@H]1NC(=O)[C@H](Cc2ccc(O)cc2)NC(=O)[C@@H]2CSSC[C@H](NC(=O)[C@H](C)NC(=O)[C@H](Cc3c[nH]cn3)NC(=O)[C@H](Cc3ccc(O)cc3)NC(=O)[C@@H]3CCCN3C(=O)[C@H]3CCCN3C(=O)[C@H](CCCCN)NC1=O)C(=O)N[C@@H](CCCNC(=N)N)C(=O)N[C@@H](C)C(=O)N1CCC[C@@H]1C(=O)N[C@@H](CCN)C(=O)N[C@@H](CCCNC(=N)N)C(=O)N[C@@H](Cc1ccc(O)cc1)C(=O)N2 [Ex. 11] (cyclo(YHACRA[dP][Dab]RYCY[Dab](Lauroyl)K[dP]P); disulfide 4-11)	–	–	–	–	82	–	24	7.3 ± 4.7	> 50	0.7	> 29	–	–	–
CCCCCCCCCC(=O)NCCCC[C@@H]1NC(=O)[C@H](Cc2ccc(O)cc2)NC(=O)[C@@H]2CSSC[C@H](NC(=O)[C@H]([C@@H](C)O)NC(=O)[C@H](Cc3c[nH]cn3)NC(=O)[C@H](Cc3ccc(O)cc3)NC(=O)[C@@H]3CCCN3C(=O)[C@H]3CCCN3C(=O)[C@H](CCCCN)NC1=O)C(=O)N[C@@H](CCCNC(=N)N)C(=O)NCC(=O)N1CCC[C@@H]1C(=O)N[C@@H](CCN)C(=O)N[C@@H](CCCNC(=N)N)C(=O)N[C@@H](Cc1ccc(O)cc1)C(=O)N2 [Ex. 15] (cyclo(YHTCRG[dP][Dab]RYCYK(Decanoyl)K[dP]P); disulfide 4-11)	–	–	–	–	73	–	24	11.2 ± 4	> 40	0.6	> 50	–	–	–
C[C@@H]1NC(=O)[C@H](CO)NC(=O)[C@@H]2CSSC[C@H](NC(=O)[C@H](Cc3ccc(O)cc3)NC(=O)[C@H](CCCNC(=N)N)NC(=O)[C@H](CCN)NC(=O)[C@H]3CCCN3C1=O)C(=O)N[C@@H](Cc1ccc(O)cc1)C(=O)N[C@@H](CCCCNC(=O)CCCCCCCCCCCCCCCO)C(=O)N[C@@H](CCCCN)C(=O)N1CCC[C@@H]1C(=O)N1CCC[C@H]1C(=O)N[C@@H](Cc1ccc(O)cc1)C(=O)N[C@@H](Cc1c[nH]cn1)C(=O)N[C@@H](Cc1ccc(O)cc1)C(=O)N2 [Ex. 21] (cyclo(YHYCSA[dP][Dab]RYCYK(Hexadecanoyl(16-OH))K[dP]P); disulfide 4-11)	–	–	63	24	49	18.6	–	–	–	–	–	> 50	> 50	–
CCCCCCCCCCOC[C@@H]1NC(=O)[C@H](Cc2ccc(O)cc2)NC(=O)[C@@H]2CSSC[C@H](NC(=O)[C@H]([C@@H](C)O)NC(=O)[C@H](Cc3c[nH]cn3)NC(=O)[C@H](Cc3ccc(O)cc3)NC(=O)[C@@H]3CCCN3C(=O)[C@H]3CCCN3C(=O)[C@H](CCC(N)=O)NC1=O)C(=O)N[C@@H](CCCNC(=N)N)C(=O)NCC(=O)N1CCC[C@@H]1C(=O)N[C@@H](CCN)C(=O)N[C@@H](CCCNC(=N)N)C(=O)N[C@@H](Cc1ccc(O)cc1)C(=O)N2 [Ex. 30] (cyclo(YHTCRG[dP][Dab]RYCYS(X3)Q[dP]P); disulfide 4-11)	–	–	–	–	54	–	24	–	> 50	5.5	> 50	–	–	55.1 ± 19
